{
  "source": "patent US20240016814A1",
  "about": "“METHOD OF TREATING HYPERTENSION” (Cipla Limited, priority 2017, published 2024)",
  "key": {"[1]": {"details": "cited from earlier work"}, "[2]": {"tested_on": "rats with monocrotaline induced pulmonary arterial hypertension", "assay": "Monocrotaline rat model for pulmonary arterial hypertension (Example 1, dosing Day 1 to 28)", "format": "in vivo, Male Sprague-Dawley rats", "protocol": "The studies were conducted for hemodynamic evaluation of desipramine in anesthetized sprague dawley rats treated with monocrotaline (“MCT”) to induce pulmonary arterial hypertension. Sildenafil was used as an internal control to compare the effects of desipramine.\nThe effects of Desipramine were evaluated in rats with monocrotaline induced pulmonary arterial hypertension using sildenafil as standard care treatment. Male Sprague-Dawley rats were orally administered vehicle, Desipramine (20 mg/kg given once daily every day for 28 days starting on Day 1), or sildenafil (100 mg/kg, administered once daily every day for 28 days starting on Day 1) (n=12 in each group). Rats received a single injection of monocrotaline (50 mg/kg, s.c.) on Study Day 1. On the twenty-eighth day following monocrotaline dosing, the rats were anesthetized with ketamine/xylazine for terminal monitoring of pulmonary and systemic arterial pressures along with heart rate.\nTest Item: Vehicle (0.5% Methylcellulose+0.2% Tween 80 in deionized water. Desipramine (20 mg/kg given once daily for 28 days; Sildenafil (100 mg/kg administered once daily)\n(§1) Route of Administration: Oral\nStudy Design: The study was planned and conducted according to design depicted below in Table 1\nPulmonary arterial hypertension was induced by injecting Monocrotaline (3 mL/Kg MCT in 50% DMSO in water) subcutaneously at a dose of 50 mg/kg of body weight to all the randomized Male Sprague-Dawley rats of Groups II, III, IV and V (except negative control group). Negative control group (Group I. DMSO group) received a single dose of 3 mL/kg 50% DMSO in water for injection subcutaneously. The positive control group (Group III) received 5 ml of vehicle every morning. The rats of desipramine group (Group IV) were orally administered Desipramine (20 mg/kg given once daily for 28 days starting on Day 1) and rats of sildenafil group (Group V) were orally administered sildenafil (100 mg/kg given once daily for 28 days starting on Day 1) On the twenty-eighth day after monocrotaline dosing, the rats were anesthetized with ketamine/xylazine for terminal monitoring of pulmonary and systemic arterial pressures along with heart rate."}, "[3]": {"tested_on": "rats with monocrotaline induced pulmonary arterial hypertension", "assay": "Monocrotaline rat model for treatment of pulmonary arterial hypertension (Example 2, dosing Day 14 till Day 28)", "format": "in vivo, Male Sprague-Dawley rats", "details": "for % Inhibition of Fulton index: Hypertrophy (RV/LV + S) / inhibition at 30 mg/kg: positive control = 0.00; for inhibition at 30 mg/kg: Rattus norvegicus, po", "protocol": "The studies were conducted for hemodynamic evaluation of desipramnine in anesthetized Sprague Dawley rats treated with monocrotaline (“MCT”) to induce pulmonary arterial hypertension. Sildenafil was used as an internal control to compare the effects of desipramine. The effects of desipramine were evaluated in rats with monocrotaline induced pulmonary arterial hypertension using sildenafil as standard care treatment. Male Sprague-Dawley rats were orally administered vehicle, desipramine (30 mg/kg, given once daily every day starting on Day 14 till Day 28), or sildenafil (100 mg/kg, given once daily every day starting on Day 14 till Day 28) (n=12 in each group). Rats received a single injection of monocrotaline (50 mg/kg, s.c.) on Study Day 1. On the twenty-eighth day following monocrotaline dosing, the rats were anesthetized with ketamine/xylazine for terminal monitoring of pulmonary and systemic arterial pressures along with heart rate.\nTest Item: Vehicle (0.5% Methylcellulose+0.2% Tween 80 in deionized water. Desipramine (30 mg/kg given once daily starting on Day 14 till Day 28; Sildenafil (100 mg/kg, administered once daily starting on Day 14 till Day 28)\nas §1\nStudy Design: The study was planned and conducted according to design depicted below in Table 7\nPulmonary arterial hypertension was induced by injecting 50 mg/kg dose of monocrotaline (3 mL/Kg MCT in 50% DMSO in water) subcutaneously to all the randomized Male Sprague-Dawley rats of Groups VII, VII, IX and X (except negative control group). Negative control group (Group VI. DMSO group) received a single dose of 3 mL/kg 50% DMSO in water for injection subcutaneously. Male Sprague-Dawley rats in groups […], VII, VIII and IX and X were administered 50 mg/kg of body weight of monocrotaline in DMSO subcutaneously to induce PAH on day 1. The rats of vehicle positive control group (Group VIII) received 5 ml of vehicle every morning. The rats of desipramine group (Group IX) were orally administered desipramine (30 mg/kg given once daily starting on Day 14 till Day 28) and rats of sildenafil group (Group X) were orally administered dildenafil (100 mg/kg given once daily starting on Day 14 till Day 28). On the twenty-eighth day after monocrotaline dosing, the rats were anesthetized with ketamine/xylazine for terminal monitoring of pulmonary and systemic arterial pressures along with heart rate. It is understood that from day 1 till administration of test compounds i.e., until day 14, rates of all groups were suffering from PAH due to administration of MCT. Thus the study was conducted to evaluate the efficacy of desipramine treatment for PAH. Sildenafil was used as an internal control to compare the effects of desipramine."}, "[4]": {"details": "group mean, Desipramine 20 mg/Kg p.o. QD Day 1-28, Day 28"}, "[5]": {"details": "individual animals, Desipramine 20 mg/Kg p.o. QD Day 1-28, Day 28"}, "[6]": {"details": "group mean, Desipramine 30 mg/Kg p.o. QD Day 14 till Day 28, Day 28"}, "[7]": {"details": "individual animals, Desipramine 30 mg/Kg p.o. QD Day 14 till Day 28, Day 28"}},
  "note": "Several values for one entry are separate records, joined by “and”; a condition that tells them apart may be missing. Identical values can stand only once. Counter-ions that a name gives are not always drawn. Like-named read-outs stand apart in the source and are kept apart here.",
  "data": [
    {"smiles": "CNCCCN1c2ccccc2CCc2ccccc21", "note": "[Desipramine hydrochloride]", "values": [
      {"measurement": "time at which peak plasma concentrations are attained", "setting": "[1]; following oral administration", "result": "4 to 6", "unit": "h"},
      {"measurement": "absorption from the gastrointestinal tract", "setting": "[1]; in vivo", "result": "rapidly and almost completely absorbed"},
      {"measurement": "first-pass metabolism", "setting": "[1]; in vivo", "result": "extensive"}
    ]},
    {"smiles": "CNCCCN1c2ccccc2CCc2ccccc21", "note": "[Desipramine]", "values": [
      {"measurement": "systolic and mean pulmonary arterial pressures compared to the vehicle group", "setting": "[2]; after 28 days, desipramine 20 mg/kg/day once daily", "result": "differences"},
      {"measurement": "activity in controlling or reducing PAH compared with Sildenafil activity", "setting": "[2]; desipramine 20 mg/kg vs sildenafil 100 mg/kg, Day 1-28", "result": "comparable"},
      {"measurement": "Fulton index: Hypertrophy (RV/LV + S), Mean", "setting": "[2]; [4]", "result": 0.321},
      {"measurement": "RV/Body wt (Right Ventricle/Body Weight), Mean", "setting": "[2]; [4]", "result": 0.0007},
      {"measurement": "Right Ventricle (RV), Mean", "setting": "[2]; [4]", "result": 0.200, "unit": "g"},
      {"measurement": "Right Ventricular Pressure (RVP), Mean", "setting": "[2]; [4]", "result": 16.241, "unit": "mmHg"},
      {"measurement": "Right Ventricular Systolic Pressure (RVSP), Mean", "setting": "[2]; group mean, Desipramine 20 mg/Kg p.o. QD Day 1-28, MCT 50 mg/kg s.c., Day 28", "result": 33.154, "unit": "mmHg"},
      {"measurement": "Fulton index: Hypertrophy (RV/LV + S)", "setting": "[2]; [5]", "result": "0.292 and 0.474 and 0.274 and 0.244 and 0.286 and 0.278 and 0.426 and 0.352 and 0.263"},
      {"measurement": "RV/Body wt (Right Ventricle/Body Weight)", "setting": "[2]; [5]", "result": "0.0005 (4×) and 0.0012 and 0.0006 (2×) and 0.0008 (2×)"},
      {"measurement": "Right Ventricle (RV)", "setting": "[2]; [5]", "result": "0.171 g and 0.272 g and 0.168 g and 0.163 g and 0.169 g (2×) and 0.289 g and 0.251 g and 0.150 g"},
      {"measurement": "Right Ventricular Pressure (RVP)", "setting": "[2]; [5]", "result": "22.694 mmHg and 19.903 mmHg and 14.460 mmHg and 12.513 mmHg and 13.047 mmHg and 12.287 mmHg and 13.930 mmHg and 16.428 mmHg and 20.906 mmHg"},
      {"measurement": "Right Ventricular Systolic Pressure (RVSP)", "setting": "[2]; individual animals, Desipramine 20 mg/Kg p.o. QD Day 1-28, MCT 50 mg/kg s.c., Day 28", "result": "44.096 mmHg and 40.737 mmHg and 27.834 mmHg and 26.777 mmHg and 25.403 mmHg and 26.483 mmHg and 31.091 mmHg and 37.179 mmHg and 38.785 mmHg"},
      {"measurement": "% Inhibition of Fulton index: Hypertrophy (RV/LV + S)", "setting": "[3]; Desipramine 30 mg/Kg p.o. QD Day 14 till Day 28", "result": 32.07, "unit": "%"},
      {"measurement": "inhibition at 30 mg/kg", "setting": "[3]; Desipramine 30 mg/Kg p.o. QD Day 14 till Day 28, read-out: % Inhibition of Right Ventricular Pressure (RVP)", "result": 53.9, "unit": "%"},
      {"measurement": "inhibition at 30 mg/kg", "setting": "[3]; Desipramine 30 mg/Kg p.o. QD Day 14 till Day 28, read-out: % Inhibition of Right Ventricular Systolic Pressure (RVSP)", "result": 51.6, "unit": "%"},
      {"measurement": "systolic and mean pulmonary arterial pressures compared to the vehicle group", "setting": "[3]; after 28 days, desipramine 30 mg/kg/day once daily, Day 14 till Day 28", "result": "differences"},
      {"measurement": "activity in treatment of PAH compared with Sildenafil activity", "setting": "[3]; desipramine 30 mg/kg vs sildenafil 100 mg/kg, Day 14 till Day 28", "result": "comparable"},
      {"measurement": "Fulton index: Hypertrophy (RV/LV + S), Mean", "setting": "[3]; [6]", "result": 0.376},
      {"measurement": "Right Ventricle weight, Mean", "setting": "[3]; [6]", "result": 0.250, "unit": "gms"},
      {"measurement": "Right Ventricular Pressure (RVP), Mean", "setting": "[3]; [6]", "result": 15.796, "unit": "mmHg"},
      {"measurement": "Right Ventricular Systolic Pressure (RVSP), Mean", "setting": "[3]; [6]", "result": 33.248, "unit": "mmHg"},
      {"measurement": "Right ventricle/Body weight, Mean", "setting": "[3]; [6]", "result": 0.0007},
      {"measurement": "Fulton index: Hypertrophy (RV/LV + S)", "setting": "[3]; [7]", "result": "0.404 and 0.426 and 0.430 and 0.333 and 0.288"},
      {"measurement": "Right Ventricle weight", "setting": "[3]; [7]", "result": "0.252 gms and 0.274 gms and 0.340 gms and 0.205 gms and 0.181 gms"},
      {"measurement": "Right Ventricular Pressure (RVP)", "setting": "[3]; [7]", "result": "14.133 mmHg and 19.618 mmHg and 19.346 mmHg and 15.432 mmHg and 10.448 mmHg"},
      {"measurement": "Right ventricle/Body weight", "setting": "[3]; [7]", "result": "0.0008 (2×) and 0.0010 and 0.0006 and 0.0005"},
      {"measurement": "Right Ventricular Systolic Pressure (RVSP)", "setting": "[3]; individual animals, Desipramine 30 mg/Kg p.o. QD Day 14 till Day 28, MCT 50 mg/kg s.c., Day 28", "result": "30.245 mmHg and 39.927 mmHg and 38.672 mmHg and 32.210 mmHg and 25.188 mmHg"}
    ]},
    {"smiles": "CCCc1nn(C)c2c(=O)[nH]c(-c3cc(S(=O)(=O)N4CCN(C)CC4)ccc3OCC)nc12", "note": "[Sildenafil]", "values": [
      {"measurement": "RV/Body wt (Right Ventricle/Body Weight), Mean", "setting": "[2]; group mean, Sildenafil 100 mg/kg p.o. QD Day 1-28, Day 28", "result": 0.0006},
      {"measurement": "RV/Body wt (Right Ventricle/Body Weight)", "setting": "[2]; individual animals, Sildenafil 100 mg/kg p.o. QD Day 1-28, Day 28", "result": "0.0009 and 0.0006 (4×) and 0.0007 (3×) and 0.0003"},
      {"measurement": "% Inhibition of Fulton index: Hypertrophy (RV/LV + S)", "setting": "[3]; Sildenafil 100 mg/Kg p.o. QD Day 14 till Day 28", "result": 30.70, "unit": "%"},
      {"measurement": "Fulton index: Hypertrophy (RV/LV + S), Mean", "setting": "[3]; group mean, Sildenafil 100 mg/Kg p.o. QD Day 14 till Day 28, Day 28", "result": 0.384},
      {"measurement": "Fulton index: Hypertrophy (RV/LV + S)", "setting": "[3]; individual animals, Sildenafil 100 mg/Kg p.o. QD Day 14 till Day 28, Day 28", "result": "0.393 and 0.306 and 0.337 and 0.389 and 0.415 and 0.464"}
    ]}
  ]
}
